Values after ≈ are worked out from the molar mass of the structure shown. Read-outs that look alike come from different tables or passages of the source.
What was measured:
B. thailandensis = assay: microbe, parasite or virus in culture; assay type: cell-based, Burkholderia thailandensis; details: for MIC90: Burkholderia thailandensis, read-out: MIC90 B. thailandensis
S. aureus 25923 = assay: MIC, standard panel of Gram-positive and Gram-negative bacteria (CLSI); assay type: cell-based, Staphylococcus aureus; details: Staphylococcus aureus, 25923; CAMHB; read-out: MIC S. aureus 25923
S. aureus 25923 HS = assay: as above; assay type: cell-based; details: Staphylococcus aureus, CAMHB, HS, read-out: MIC S. aureus 25923 HS
S. aureus 101 = assay: as above; assay type: cell-based, Staphylococcus aureus; details: Staphylococcus aureus, 101; CAMHB; read-out: MIC S. aureus 101
S. epidermis 12228 = assay: as above; assay type: cell-based, Staphylococcus epidermis; details: Staphylococcus, 12228; CAMHB; read-out: MIC S. epidermis 12228
P. aeruginosa 27853 = assay: as above; assay type: cell-based, Pseudomonas aeruginosa; details: Pseudomonas aeruginosa, 27853; CAMHB; read-out: MIC P. aeruginosa 27853
A. Baumanii OXA-51 = assay: MIC, panel of quinolone-resistant strains (CLSI); assay type: cell-based; details: Acinetobacter baumannii; CIP R, ESBL
S. pneumoniae 1027 = assay: MIC, panel of quinolone-resistant strains (CLSI); assay type: cell-based; details: Streptococcus pneumoniae, LEV R
[1] = test system: Acinetobacter spp. H064200250; assay: MIC determination for Acinetobacter strains (Example 3); assay type: cell-based, Acinetobacter sp.; details: LEV R, CIP R, MRP R, IMP I
A. baumannii A489 = assay: as above; assay type: cell-based; details: LEV R, CIP R, MRP R, IMP R, AMK R, TET R
A. baumannii A390 [2] = assay: as above; assay type: cell-based; details: LEV R, CIP R, MRP R, IPM I, AMK R, TET I
A. baumannii A473 [3] = assay: as above; assay type: cell-based; details: LEV R, CIP R, MRP R, IMP R, AMK R, TET R
A. baumannii A390 [4] = assay: MIC without and with sub-inhibitory polymyxin B (Example 4); assay type: cell-based, Acinetobacter baumannii; details: for MIC: Acinetobacter baumannii, A390, A. baumannii A390, without polymyxin B, read-out: MIC without PB
A. baumannii ATCC 19606 [5] = assay: Preliminary MBC without and with sub-inhibitory polymyxin B (Example 4); assay type: cell-based, Acinetobacter baumannii; details: preliminary MBC; for MBC: Acinetobacter baumannii, ATCC19606, A. baumannii ATCC 19606, without polymyxin B, read-out: MBC without PB; for MBC +0.06 μg/ml PB: A. baumannii ATCC 19606, +0.06 μg/ml polymyxin B
A. baumannii A472 = assay: as above; assay type: cell-based, Acinetobacter baumannii; details: for MBC: Acinetobacter baumannii, A472, A. baumannii A472, without polymyxin B, read-out: MBC without PB; for MBC +[…] PB: A. baumannii A472, +[…] polymyxin B
A. baumannii A473 [6] = assay: as above; assay type: cell-based, Acinetobacter baumannii; details: for MBC: Acinetobacter baumannii, A473, A. baumannii A473, without polymyxin B, read-out: MBC without PB
E. coli IMP = assay: microbe, parasite or virus in culture; details: Escherichia coli, read-out: MIC E. coli IMP
S. aureus SMITH = assay: MIC, panel of quinolone-resistant strains (CLSI); assay type: cell-based; details: Staphylococcus aureus; CIP R
S. pneumoniae 49619 = assay: MIC, panel of quinolone-resistant strains (CLSI); assay type: cell-based; details: Streptococcus pneumoniae, LEV S
A. baumannii ATCC 19606 [7] = assay: MIC determination for Acinetobacter strains (Example 3); assay type: cell-based; details: ATCC19606, reference strain
A. baumannii A387 [8] = assay: MIC without and with sub-inhibitory polymyxin B (Example 4); assay type: cell-based, Acinetobacter baumannii; details: for MIC: Acinetobacter baumannii, A387, A. baumannii A387, without polymyxin B, read-out: MIC without PB; for MIC +0.06 μg/ml PB / MIC without PB/MIC + PB: A. baumannii A387; for MIC +0.06 μg/ml PB: +0.06 μg/ml polymyxin B; for MIC without PB/MIC + PB: ratio, PB 0.06 μg/ml
A. baumannii J2 = assay: MIC determination for Acinetobacter strains (Example 3); assay type: cell-based; details: LEV R, CIP R
A. baumannii A387 [9] = assay: as above; assay type: cell-based; details: LEV I, CIP R, IPM R, AMK R, TET R
[10] = test system: 11 strains of A. baumannii and one strain of Acinetobacter sp.; assay: Preliminary MBC without and with sub-inhibitory polymyxin B, whole panel (Example 4; also strains not listed separately); assay type: cell-based; details: for MBC +0.06 μg/ml PB: A. baumannii A14, +0.06 μg/ml polymyxin B; for MBC +[…] PB: A. baumannii NCTC 13301, +[…] polymyxin B; for MBC: Acinetobacter baumannii, read-out: MBC without PB
A. baumannii A387 [11] = assay: Preliminary MBC without and with sub-inhibitory polymyxin B (Example 4); assay type: cell-based, Acinetobacter baumannii; details: for MBC +0.06 μg/ml PB: A. baumannii A387, +0.06 μg/ml polymyxin B; for MBC: Acinetobacter baumannii, A387, A. baumannii A387, without polymyxin B, read-out: MBC without PB
B. thailandensis E264 = assay: microbe, parasite or virus in culture; assay type: cell-based, Burkholderia thailandensis; details: Burkholderia thailandensis, E264, read-out: MIC B. thailandensis E264
[12] = A. baumannii A14, without polymyxin B, 1st experiment
[13] = A. baumannii A14, without polymyxin B, 2nd experiment
[14] = NCTC13301, A. baumannii NCTC 13301, without polymyxin B, 1st experiment

Cc1c(-c2ccc(N)cc2)c(F)cn2c(=O)c(C(=O)O)cc(C3CC3)c12 [Compound 7, 8-(4-amino-phenyl)-1-cyclopropyl-7-fluoro-9-methyl-4-oxo-quinolizine-3-carboxylic acid]
MIC90 (B. thailandensis): < 0.048 µg/mL | Dilutions improvement shift on B. thailandensis MIC90 (between pH 7 and pH 5) (B. thailandensis; pH 7 versus pH 5): Yes, 4× | MIC (S. aureus 25923): < 0.008 µg/mL | MIC (S. aureus 25923 HS): 1 µg/mL (≈ 2.84 µM) | MIC (S. aureus 101): 1 µg/mL (≈ 2.84 µM) | MIC (S. epidermis 12228): < 0.008 µg/mL | MIC (P. aeruginosa 27853): 4 µg/mL (≈ 11.4 µM) | MIC (A. Baumanii OXA-51): 8 µg/mL (≈ 22.7 µM) | MIC (S. pneumoniae 1027): 4 µg/mL (≈ 11.4 µM) | MIC [1]: 8 µg/mL (≈ 22.7 µM) | MIC (A. baumannii A489): 8 µg/mL (≈ 22.7 µM) | MIC (A. baumannii A390 [2]): 8 µg/mL (≈ 22.7 µM) | MIC (A. baumannii A473 [3]): 4 µg/mL (≈ 11.4 µM) | MIC (A. baumannii A390 [4]; 1st experiment): 8 µg/mL (≈ 22.7 µM) | MBC (A. baumannii ATCC 19606 [5]; 2nd experiment): 0.25 µg/mL (≈ 0.709 µM) | MBC (A. baumannii A472; 1st experiment): 4 µg/mL (≈ 11.4 µM) | MBC (A. baumannii A472; 2nd experiment): 8 µg/mL (≈ 22.7 µM) | MBC (A. baumannii A473 [6]; 1st experiment): 4 µg/mL (≈ 11.4 µM) | MBC (A. baumannii A473 [6]; 2nd experiment): 4 µg/mL (≈ 11.4 µM) | MIC (E. coli IMP): < 0.008 µg/mL

Cc1c(-c2ccc(N)cc2)ccn2c(=O)c(C(=O)O)cc(C3CC3)c12 [Compound 8, 8-(4-amino-phenyl)-1-cyclopropyl-9-methyl-4-oxo-quinolizine-3-carboxylic acid]
MIC90 (B. thailandensis): < 0.024 µg/mL | MIC (S. aureus 25923): < 0.008 µg/mL | MIC (S. epidermis 12228): < 0.008 µg/mL | MIC (P. aeruginosa 27853): 1 µg/mL (≈ 2.99 µM) | MIC (A. Baumanii OXA-51): 4 µg/mL (≈ 12 µM) | MIC (S. aureus SMITH): < 0.03 µg/mL | MIC (S. pneumoniae 49619): < 0.03 µg/mL | MIC (S. pneumoniae 1027): 2 µg/mL (≈ 5.98 µM) | MIC (A. baumannii ATCC 19606 [7]): 1 µg/mL (≈ 2.99 µM) | MIC [1]: 2 µg/mL (≈ 5.98 µM) | MIC (A. baumannii A390 [2]): 16 µg/mL (≈ 47.9 µM) | MIC (A. baumannii A387 [8]; 2nd experiment, visual reading): 1 µg/mL (≈ 2.99 µM) | MIC (A. baumannii A390 [4]; 1st experiment): 16 µg/mL (≈ 47.9 µM) | MIC (A. baumannii A390 [4]; 2nd experiment, visual reading): 16 µg/mL (≈ 47.9 µM) | MBC (A. baumannii A472; 2nd experiment): 4 µg/mL (≈ 12 µM) | MBC (A. baumannii A473 [6]; 2nd experiment): 4 µg/mL (≈ 12 µM) | MIC (E. coli IMP): < 0.008 µg/mL

C[C@@H](O)[C@H]1C(=O)N2C(C(=O)O)=C(SCCN=CN)C[C@H]12 [Imipenem, reference compound]
MIC (A. baumannii ATCC 19606 [7]): 2 µg/mL (≈ 6.68 µM) | MIC (A. baumannii J2): 4 µg/mL (≈ 13.4 µM) | MIC [1]: 16 µg/mL (≈ 53.4 µM) | MIC (A. baumannii A489): 128 µg/mL (≈ 428 µM) | MIC (A. baumannii A387 [9]): 16 µg/mL (≈ 53.4 µM) | MIC (A. baumannii A390 [2]): 16 µg/mL (≈ 53.4 µM) | MIC (A. baumannii A473 [3]): 32 µg/mL (≈ 107 µM) | MBC +0.06 μg/ml PB ([10]; 1st experiment): 1 µg/mL | MBC +0.06 μg/ml PB ([10]; 2nd experiment): 0.5 µg/mL | MBC +[…] PB ([10]; 1st experiment): 16 µg/mL (≈ 53.4 µM) | MBC +[…] PB ([10]; 2nd experiment): 0.5 µg/mL (≈ 1.67 µM) | MBC [10, 12]: 2 µg/mL (≈ 6.68 µM) | MBC [10, 13]: 1 µg/mL (≈ 3.34 µM) | MBC [10, 14]: 128 µg/mL (≈ 428 µM) | MBC ([10]; NCTC13301, A. baumannii NCTC 13301, without polymyxin B, 2nd experiment): 128 µg/mL (≈ 428 µM) | MIC +0.06 μg/ml PB (A. baumannii A387 [8]; 1st experiment): 8 µg/mL | MIC +0.06 μg/ml PB (A. baumannii A387 [8]; 2nd experiment, visual reading): 8 µg/mL | MIC without PB/MIC + PB (A. baumannii A387 [8]; 1st experiment): 2 | MIC without PB/MIC + PB (A. baumannii A387 [8]; 2nd experiment): 2 | MIC (A. baumannii A387 [8]; 1st experiment): 16 µg/mL (≈ 53.4 µM) | MIC (A. baumannii A387 [8]; 2nd experiment, visual reading): 16 µg/mL (≈ 53.4 µM) | MIC +0.06 μg/ml PB (A. baumannii A390 [4]; A. baumannii A390, +0.06 μg/ml polymyxin B, 2nd experiment, visual reading): 4 µg/mL | MIC without PB/MIC + PB (A. baumannii A390 [4]; A. baumannii A390, ratio, PB 0.06 μg/ml, 2nd experiment): 4 | MIC (A. baumannii A390 [4]; 1st experiment): 16 µg/mL (≈ 53.4 µM) | MIC (A. baumannii A390 [4]; 2nd experiment, visual reading): 16 µg/mL (≈ 53.4 µM) | MBC +0.06 μg/ml PB (A. baumannii ATCC 19606 [5]; 2nd experiment): 1 µg/mL | MBC +0.06 μg/ml PB (A. baumannii ATCC 19606 [5]; 1st experiment): 2 µg/mL | MBC (A. baumannii ATCC 19606 [5]; 2nd experiment): 4 µg/mL (≈ 13.4 µM) | MBC (A. baumannii ATCC 19606 [5]; 1st experiment): 2 µg/mL (≈ 6.68 µM) | MBC +0.06 μg/ml PB (A. baumannii A387 [11]; 1st experiment): 8 µg/mL | MBC +0.06 μg/ml PB (A. baumannii A387 [11]; 2nd experiment): 8 µg/mL | MBC (A. baumannii A387 [11]; 1st experiment): 16 µg/mL (≈ 53.4 µM) | MBC (A. baumannii A387 [11]; 2nd experiment): 16 µg/mL (≈ 53.4 µM) | MBC +[…] PB (A. baumannii A472; 1st experiment): 0.25 µg/mL (≈ 0.835 µM) | MBC +[…] PB (A. baumannii A472; 2nd experiment): 0.25 µg/mL (≈ 0.835 µM) | MBC (A. baumannii A472; 1st experiment): 16 µg/mL (≈ 53.4 µM) | MBC (A. baumannii A472; 2nd experiment): 8 µg/mL (≈ 26.7 µM) | MBC +0.06 μg/ml PB (A. baumannii A473 [6]; A. baumannii A473, +0.06 μg/ml polymyxin B, 2nd experiment): 4 µg/mL | MBC (A. baumannii A473 [6]; 1st experiment): 32 µg/mL (≈ 107 µM) | MBC (A. baumannii A473 [6]; 2nd experiment): 32 µg/mL (≈ 107 µM)

C[C@H]1COc2c(N3CCN(C)CC3)c(F)cc3c(=O)c(C(=O)O)cn1c23 [Levofloxacin, reference compound]
MIC (S. aureus SMITH): 8 µg/mL (≈ 22.1 µM) | MIC (S. pneumoniae 1027): 16 µg/mL (≈ 44.3 µM) | MIC (A. baumannii ATCC 19606 [7]): 1 µg/mL (≈ 2.77 µM) | MIC (A. baumannii J2): 32 µg/mL (≈ 88.6 µM) | MIC [1]: 16 µg/mL (≈ 44.3 µM) | MBC [10, 12]: 32 µg/mL (≈ 88.6 µM) | MBC [10, 13]: 32 µg/mL (≈ 88.6 µM) | MBC [10, 14]: 32 µg/mL (≈ 88.6 µM) | MBC (A. baumannii ATCC 19606 [5]; 2nd experiment): 1 µg/mL (≈ 2.77 µM) | MBC (A. baumannii ATCC 19606 [5]; 1st experiment): 0.5 µg/mL (≈ 1.38 µM) | MIC (B. thailandensis E264): 4 µg/mL (≈ 11.1 µM)

From patent US10155021B2, “Antimicrobial 4-oxoquinolizines” (Emergent Product Development Gaithersburg Inc., priority 2011, dated 2018)
